In ChEMBL document CHEMBL4152272, “Synthesis and evaluation of novel triazolyl quinoline derivatives as potential antileishmanial agents” (Eur J Med Chem, 2018):
Activity calls are given as the source filed them. No cut-off for these calls is given here.

Columns and labels:
Leishmania donovani [1] = experiment: Antileishmanial activity against Leishmania donovani MHOM/IN/80/Dd8 amastigotes harboring luciferase reporter gene infected in mouse J774A.1 cells after 72 hrs by luminescence assay; format: functional, organism-based
Leishmania donovani [2] = experiment: Antileishmanial activity against Leishmania donovani MHOM/IN/80/Dd8 promastigotes harboring luciferase reporter gene after 72 hrs by luminescence assay; format: functional, organism-based; conditions: MHOM/IN/80/Dd8, 72 h
Leishmania donovani [3] = experiment: Antileishmanial activity against Leishmania donovani MHOM/IN/80/Dd8 amastigotes infected in golden hamsters assessed as inhibition of parasite at 50 mg/kg, ip for 5 consecutive days measured on day 7 post last dose by Giemsa staining based assay relative to control; format: functional; conditions: for inhibition in vivo at 50 mg/kg: MHOM/IN/80/Dd8, ip, 168 h
Leishmania donovani [4] = experiment: Antileishmanial activity against Leishmania donovani MHOM/IN/80/Dd8 amastigotes infected in golden hamsters assessed as inhibition of parasite at 50 mg/kg, ip for 5 consecutive days measured on day 28 post last dose by Giemsa staining based assay relative to control; format: functional; conditions: MHOM/IN/80/Dd8, ip, 672 h
[5] = Cytotoxicity against mouse J774A.1 cells after 48 hrs by MTT assay; format: cell-based, J774.A1
[6] = Selectivity index, ratio of CC50 for cytotoxicity against mouse J774A.1 cells to IC50 for Leishmania donovani MHOM/IN/80/Dd8 amastigotes harboring luciferase reporter gene infected in mouse J774A.1 cells; format: toxicity, cell-based; conditions: read-out: Ratio CC50/IC50
Leishmania donovani [7] = experiment: Antileishmanial activity against Leishmania donovani MHOM/IN/80/Dd8 amastigotes infected in golden hamsters assessed as inhibition of parasite at 20 mg/kg, ip for 5 consecutive days measured on day 28 post last dose by Giemsa staining based assay relative to control; format: functional, organism-based
Leishmania donovani [8] = experiment: Antileishmanial activity against Leishmania donovani MHOM/IN/80/Dd8 amastigotes infected in golden hamsters assessed as inhibition of parasite at 20 mg/kg, ip for 5 consecutive days measured on day 7 post last dose by Giemsa staining based assay relative to control; format: functional, organism-based
[9] = Leishmania donovani, MHOM/IN/80/Dd8, J774.A1, 72 h, read-out: IC50

Row | Compound | IC50 (Leishmania donovani [1]) | IC50 (Leishmania donovani [2]) [µM] | IC50 (Leishmania donovani [1]; [9]) [µM] | CC50 at 48 h [5] [µM] | selectivity ratio [6] | other results
1 | CCc1ccc(-n2cc(COC(=O)c3c(C)nc4ccccc4c3-c3ccccc3)nn2)cc1 | Not Active | 8 | – | – | – | –
2 | Cc1nc2ccccc2c(-c2ccccc2)c1C(=O)OCc1cn(-c2ccc(F)cc2)nn1 | Not Active | 22 | – | – | – | –
3 | Cc1nc2ccc(Cl)cc2c(-c2ccccc2)c1C(=O)OCc1cn(Cc2ccccc2)nn1 | – | 25 | 7 | 35 | 4.5 | inhibition in vivo at 50 mg/kg (Leishmania donovani [3]): 37.8%; inhibition in vivo at 50 mg/kg (Leishmania donovani [4]): 46.9%
4 | CCCCCCCCCCCCCCCCOP(=O)([O-])OCC[N+](C)(C)C [MILTEFOSINE] | – | 1 | 8 | 56 | 6.72 | –
5 | Cc1ccc(-n2cc(COC(=O)c3c(C)nc4ccc(Cl)cc4c3-c3ccccc3)nn2)cc1 | Not Active | 10 | – | – | – | –
6 | Cc1nc2ccc(Cl)cc2c(-c2ccccc2)c1C(=O)OCc1cn(Cc2ccc([N+](=O)[O-])cc2)nn1 | – | 5 | 16 | 75 | 4.6 | inhibition in vivo at 50 mg/kg (Leishmania donovani [3]): 6.63%; inhibition in vivo at 50 mg/kg (Leishmania donovani [4]): 22.7%
7 | Cc1nc2ccc(Cl)cc2c(-c2ccccc2)c1C(=O)OCc1cn(Cc2ccccc2F)nn1 | Not Active | 24 | – | – | – | –
8 | Cc1ccc(-n2cc(COC(=O)c3c(C)nc4ccccc4c3-c3ccccc3)nn2)cc1 | – | 16 | 7 | 39 | 5.58 | inhibition (Leishmania donovani [3]): inactive; inhibition in vivo at 50 mg/kg (Leishmania donovani [4]): 40.4%
9 | Sodium Stibogluconate | – | – | – | – | – | inhibition (Leishmania donovani [7]): 85.3%; inhibition (Leishmania donovani [8]): 81.3%
10 | Cc1nc2ccccc2c(-c2ccccc2)c1C(=O)OCc1cn(-c2ccc(C(C)(C)C)cc2)nn1 | Not Active | 7 | – | – | – | –
11 | Cc1nc2ccccc2c(-c2ccccc2)c1C(=O)OCc1cn(Cc2ccccc2)nn1 | Not Active | 10 | – | – | – | –
12 | Cc1nc2ccccc2c(-c2ccccc2)c1C(=O)OCc1cn(Cc2ccccc2C#N)nn1 | Not Active | 10 | – | – | – | –
13 | Cc1nc2ccc(Cl)cc2c(-c2ccccc2)c1C(=O)OCc1cn(-c2ccc(F)cc2)nn1 | Not Active | 17 | – | – | – | –
14 | Cc1nc2ccccc2c(-c2ccccc2)c1C(=O)OCc1cn(Cc2ccc(F)cc2)nn1 | Not Active | 6 | – | – | – | –
15 | Cc1nc2ccccc2c(-c2ccccc2)c1C(=O)OCc1cn(Cc2ccc([N+](=O)[O-])cc2)nn1 | – | 9 | 18 | 42 | 2.3 | –
16 | Cc1ccc(Cn2cc(COC(=O)c3c(C)nc4ccccc4c3-c3ccccc3)nn2)cc1 | – | 4 | 22 | 41 | 1.81 | –
17 | Cc1nc2ccccc2c(-c2ccccc2)c1C(=O)OCc1cn(Cc2ccccc2F)nn1 | Not Active | 4 | – | – | – | –
18 | Cc1nc2ccc(Cl)cc2c(-c2ccccc2)c1C(=O)OCc1cn(Cc2ccc(F)cc2)nn1 | Not Active | 2 | – | – | – | –
19 | Cc1ccc(Cn2cc(COC(=O)c3c(C)nc4ccc(Cl)cc4c3-c3ccccc3)nn2)cc1 | Not Active | 34 | – | – | – | –
20 | Cc1nc2ccc(Cl)cc2c(-c2ccccc2)c1C(=O)OCc1cn(-c2ccc(C(C)(C)C)cc2)nn1 | Not Active | 45 | – | – | – | –
21 | COc1cccc(Cn2cc(COC(=O)c3c(C)nc4ccc(Cl)cc4c3-c3ccccc3)nn2)c1 | Not Active | 7 | – | – | – | –
22 | Cc1nc2ccc(Cl)cc2c(-c2ccccc2)c1C(=O)OCc1cn(-c2ccc(C(C)C)cc2)nn1 | Not Active | 3 | – | – | – | –
23 | Cc1nc2ccccc2c(-c2ccccc2)c1C(=O)OCc1cn(-c2ccc(C(C)C)cc2)nn1 | Not Active | 5 | – | – | – | –
24 | Cc1ccc(-n2cc(COC(=O)c3c(C)nc4ccccc4c3-c3ccccc3)nn2)cc1F | – | 6 | 17 | 36 | 2.12 | –
25 | COc1cccc(Cn2cc(COC(=O)c3c(C)nc4ccccc4c3-c3ccccc3)nn2)c1 | – | 16 | 34 | 36 | 1 | –
26 | Cc1ccc(-n2cc(COC(=O)c3c(C)nc4ccc(Cl)cc4c3-c3ccccc3)nn2)cc1F | – | 4 | 12 | 34 | 2.9 | –
27 | CCc1ccc(-n2cc(COC(=O)c3c(C)nc4ccc(Cl)cc4c3-c3ccccc3)nn2)cc1 | – | 5 | 14 | 99 | 7 | inhibition in vivo at 50 mg/kg (Leishmania donovani [3]): 9.76%; inhibition in vivo at 50 mg/kg (Leishmania donovani [4]): 17.3%
